Biological target: T1, dihydroceramide desaturase (Des1) (Homo sapiens, UniProt O15121)
T1 construct: gene DEGS1
T1 sequence (O15121 2-323): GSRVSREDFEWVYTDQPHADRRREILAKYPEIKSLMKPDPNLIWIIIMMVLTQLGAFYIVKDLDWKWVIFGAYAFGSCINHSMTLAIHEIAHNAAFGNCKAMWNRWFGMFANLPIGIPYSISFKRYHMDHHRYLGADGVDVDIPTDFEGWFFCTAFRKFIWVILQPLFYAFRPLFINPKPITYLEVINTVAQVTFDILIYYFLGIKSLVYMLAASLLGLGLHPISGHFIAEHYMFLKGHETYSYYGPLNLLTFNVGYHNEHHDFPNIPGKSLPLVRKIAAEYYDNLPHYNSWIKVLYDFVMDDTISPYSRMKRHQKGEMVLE
Assay: Des1 activity in intact Jurkat cells labeled with DhCer-C6-NBD, HPLC with fluorescence detection
Assay type: cell-based

Structure (SMILES)	IC50 [µM]
O=C(NCc1ccncc1)C12CC3CC(C1)CC(c1ccc(Cl)cc1)(C3)C2 [ABC294640, 3-(4-chlorophenyl)-adamantane-1-carboxylic acid (pyridin-4-ylmethyl)amide]	10.2
Oc1ccc(Nc2nc(-c3ccc(Cl)cc3)cs2)cc1 [SKi, 2-(p-hydroxyanilino)-4-(p-chlorophenyl)thiazole]	0.63 to 0.69
